Experimental data: patent US20050209278A1, “Piperidinyl- and piperazinyl-sulfonylmethyl hydroxamic acids and their use as protease inhibitors” (priority 2002, published 2005)
Where two headings read alike, the source gives them in different places.

How the values were obtained:
Format in all cases: biochemical
[1] = target: T1, MMP-2 (Homo sapiens, UniProt P08253); assay: MMP-2 inhibition (in vitro Ki)
T1 construct: made in house; host or cells: MMP-2-transfected p2AHT2 cells
T1 sequence (P08253 110-660): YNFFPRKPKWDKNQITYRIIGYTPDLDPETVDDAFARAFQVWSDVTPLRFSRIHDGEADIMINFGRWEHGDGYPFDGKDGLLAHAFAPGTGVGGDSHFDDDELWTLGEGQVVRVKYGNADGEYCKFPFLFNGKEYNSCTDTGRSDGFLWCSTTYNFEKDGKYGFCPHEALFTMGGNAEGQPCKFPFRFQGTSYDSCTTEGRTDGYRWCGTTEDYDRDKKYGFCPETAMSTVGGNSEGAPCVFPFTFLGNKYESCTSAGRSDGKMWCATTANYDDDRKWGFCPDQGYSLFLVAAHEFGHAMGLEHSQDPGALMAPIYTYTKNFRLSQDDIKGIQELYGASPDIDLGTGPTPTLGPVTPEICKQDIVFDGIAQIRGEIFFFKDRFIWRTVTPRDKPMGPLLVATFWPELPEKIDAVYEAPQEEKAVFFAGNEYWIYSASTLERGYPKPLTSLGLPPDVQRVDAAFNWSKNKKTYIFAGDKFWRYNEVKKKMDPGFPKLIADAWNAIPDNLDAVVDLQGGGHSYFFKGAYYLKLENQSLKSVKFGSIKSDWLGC

[2] = target: T2, MMP-1 (Homo sapiens, UniProt P03956); assay: MMP-1 inhibition (in vitro Ki)
T2 construct: made in house; host or cells: MMP-1-transfected HT-1080 cells (spent media)
T2 sequence (P03956 100-469): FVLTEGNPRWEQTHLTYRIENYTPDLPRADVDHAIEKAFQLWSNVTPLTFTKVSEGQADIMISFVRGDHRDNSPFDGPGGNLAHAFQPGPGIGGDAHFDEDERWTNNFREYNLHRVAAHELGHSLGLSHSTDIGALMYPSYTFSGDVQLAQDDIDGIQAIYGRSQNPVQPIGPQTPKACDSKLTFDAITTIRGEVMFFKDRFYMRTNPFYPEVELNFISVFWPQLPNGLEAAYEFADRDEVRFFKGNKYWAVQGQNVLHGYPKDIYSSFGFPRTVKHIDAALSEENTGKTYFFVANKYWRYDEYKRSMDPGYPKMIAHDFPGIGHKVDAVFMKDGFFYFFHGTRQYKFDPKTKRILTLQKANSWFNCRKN

[3] = target: T3, MMP-14 (Homo sapiens, UniProt P50281); assay: MMP-14 inhibition (in vitro Ki)
T3 construct: The catalytic domain enzyme was expressed in E. coli inclusion bodies, solubilized in urea; made in house

[4] = target: T4, MMP-13 (Homo sapiens, UniProt P45452); assay: MMP-13 inhibition (in vitro Ki)
T4 construct: made in house; host or cells: baculovirus / insect cells

[5] = target: T5, MMP-9 (Homo sapiens, UniProt P14780); assay: MMP-9 inhibition (in vitro Ki)
T5 construct: made in house; host or cells: MMP-9-transfected HT1080 cells (spent media)
T5 sequence (P14780 107-707 limits assumed): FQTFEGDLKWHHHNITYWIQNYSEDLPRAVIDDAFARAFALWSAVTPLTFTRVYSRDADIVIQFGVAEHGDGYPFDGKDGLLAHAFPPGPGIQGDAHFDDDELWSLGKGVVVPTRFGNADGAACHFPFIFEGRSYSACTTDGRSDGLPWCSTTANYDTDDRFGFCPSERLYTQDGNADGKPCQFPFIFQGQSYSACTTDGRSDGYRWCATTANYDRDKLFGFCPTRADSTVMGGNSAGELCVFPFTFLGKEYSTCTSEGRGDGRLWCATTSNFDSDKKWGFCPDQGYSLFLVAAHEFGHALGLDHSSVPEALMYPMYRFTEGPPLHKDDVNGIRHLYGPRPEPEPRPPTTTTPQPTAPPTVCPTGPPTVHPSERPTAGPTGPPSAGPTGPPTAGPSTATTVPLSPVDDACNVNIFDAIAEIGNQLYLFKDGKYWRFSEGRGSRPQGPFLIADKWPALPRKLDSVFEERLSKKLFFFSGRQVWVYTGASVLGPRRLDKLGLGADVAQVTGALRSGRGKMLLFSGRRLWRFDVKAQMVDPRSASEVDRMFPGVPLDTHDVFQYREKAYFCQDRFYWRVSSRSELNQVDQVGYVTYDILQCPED

[6] = Table 9, read-out: MMP-2 Ki (IC-50)
[7] = Table 9, read-out: MMP-1 Ki (IC-50)
[8] = Table 9, read-out: MMP-14 Ki (IC-50)
[9] = Table 9, read-out: MMP-13 Ki (IC-50)
[10] = Table 9, read-out: MMP-9 Ki (IC-50)

SMILES | Ki [1, 6] | Ki [2, 7] | Ki [3, 8] | Ki [4, 9] | Ki [5, 10] | also measured
O=C(NO)C1(S(=O)(=O)N2CCC(CCCCc3nc(-c4ccc(OC(F)(F)F)cc4)no3)CC2)CCOCC1 [Example A64, N-hydroxy-4-{[4-(4-{3-[4-(trifluoromethoxy)phenyl]-1,2,4-oxadiazol-5-yl}butyl)piperidin-1-yl]sulfonyl}tetrahydro-2H-pyran-4-carboxamide] | – | – | – | – | – | Ki ([1]; Table 8, read-out: MMP-2 Ki): 63.8 nM; Ki ([2]; Table 8, read-out: MMP-1 Ki): 8880 nM; Ki ([3]; Table 8, read-out: MMP-14 Ki): > 10000 nM; Ki ([4]; Table 8, read-out: MMP-13 Ki): 0.51 nM; Ki ([5]; Table 8, read-out: MMP-9 Ki): 273 nM
O=C(NO)C1(S(=O)(=O)N2CCC(OCCCCCC(F)(F)C(F)(F)F)CC2)CCOCC1 [Example A50, 4-[4-(6,6,7,7,7-pentafluoro-heptyloxy)-piperidine-1-sulfonyl]-tetrahydro-pyran-4-carboxylic Acid Hydroxyamide] | – | – | – | – | – | Ki ([1]; Table 8, read-out: MMP-2 Ki): 1.57 nM; Ki ([2]; Table 8, read-out: MMP-1 Ki): > 10000 nM; Ki ([3]; Table 8, read-out: MMP-14 Ki): 4560 nM; Ki ([4]; Table 8, read-out: MMP-13 Ki): 0.6 nM; Ki ([5]; Table 8, read-out: MMP-9 Ki): 7.1 nM
CCC(CC)(C(=O)NO)S(=O)(=O)N1CCC(Oc2ccc(SC(F)(F)F)cc2)CC1 [Example B2, 2-ethyl-N-hydroxy-2-[(4-{4-[(trifluoromethyl)thio]phenoxy}piperidin-1-yl)sulfonyl]butanamide] | – | – | – | – | – | Ki ([1]; Table 10, read-out: MMP-2 Ki): 1.21 nM; Ki ([2]; Table 10, read-out: MMP-1 Ki): 2910 nM; Ki ([3]; Table 10, read-out: MMP-14 Ki): 1540 nM; Ki ([4]; Table 10, read-out: MMP-13 Ki): 1.07 nM; Ki ([5]; Table 10, read-out: MMP-9 Ki): 0.483 nM
CN(CC1CCCCC1)C(=O)CCCCC1CCN(S(=O)(=O)C2(C(=O)NO)CCOCC2)CC1 [Example A112] | 190 nM | 708 nM | > 10000 nM | 0.92 nM | 1820 nM | –
O=C(NO)C1(S(=O)(=O)N2CCC(c3ccc(C#CCc4ccccc4)cn3)CC2)CCOCC1 [Example A134] | 0.65 nM | 1250 nM | 191 nM | 0.109 nM | 1.25 nM | –
CCCCC#Cc1ccc(C2CCN(S(=O)(=O)C3(C(=O)NO)CCOCC3)CC2)nc1 [Example A137] | 0.37 nM | 1260 nM | 221 nM | 0.09 nM | 0.32 nM | –
O=C(NO)C1(S(=O)(=O)N2CCC(c3ccc(CCC4CCC4)cn3)CC2)CCOCC1 [Example A120] | 0.42 nM | 4910 nM | 1280 nM | 0.15 nM | 0.16 nM | –
O=C(NO)C1(S(=O)(=O)N2CCC(c3ccc(-n4ccnc4)cn3)CC2)CCOCC1 [Example A188] | 7.61 nM | 3310 nM | 6200 nM | 3.89 nM | 54.7 nM | –
CC(C)CCCCCOC1CCN(S(=O)(=O)C2(C(=O)NO)CCOCC2)CC1 [Example A36F] | – | – | – | – | – | Ki ([1]; Table 8, read-out: MMP-2 Ki): 2.47 nM; Ki ([2]; Table 8, read-out: MMP-1 Ki): > 10000 nM; Ki ([3]; Table 8, read-out: MMP-14 Ki): 1900 nM; Ki ([4]; Table 8, read-out: MMP-13 Ki): 1.11 nM; Ki ([5]; Table 8, read-out: MMP-9 Ki): 2.26 nM
CCC(F)(F)c1ccc(C2CCN(S(=O)(=O)C3(C(=O)NO)CCOCC3)CC2)nc1 [Example A129] | 2.96 nM | 650 nM | 4540 nM | 2.81 nM | 10.8 nM | –
O=C(NCCCCC1CCN(S(=O)(=O)C2(C(=O)NO)CCOCC2)CC1)C1(c2ccccc2)CC1 [Example A115] | 98.5 nM | > 10000 nM | > 10000 nM | 0.81 nM | 1350 nM | –
CCOCCCCCC1CCN(S(=O)(=O)C2(C(=O)NO)CCOCC2)CC1 [Example A38, 4-[4-(5-ethoxy-pentyl)-piperidine-1-sulfonyl]-tetrahydro-pyran-4-carboxylic Acid Hydroxyamide] | – | – | – | – | – | Ki ([1]; Table 8, read-out: MMP-2 Ki): 0.72 nM; Ki ([2]; Table 8, read-out: MMP-1 Ki): 4580 nM; Ki ([3]; Table 8, read-out: MMP-14 Ki): 1190 nM; Ki ([4]; Table 8, read-out: MMP-13 Ki): 0.52 nM; Ki ([5]; Table 8, read-out: MMP-9 Ki): 2.25 nM
O=C(NO)C1(S(=O)(=O)N2CCC(CCCCOCCC(F)(F)F)CC2)CCOCC1 [Example A46, 4-{4-[4-(3,3,3-trifluoro-propoxy)-butyl]-piperidine-1-sulfonyl}-tetrahydro-pyran-4-carboxylic Acid Hydroxyamide] | – | – | – | – | – | Ki ([1]; Table 8, read-out: MMP-2 Ki): 5.97 nM; Ki ([2]; Table 8, read-out: MMP-1 Ki): 1500 nM; Ki ([3]; Table 8, read-out: MMP-14 Ki): 3610 nM; Ki ([4]; Table 8, read-out: MMP-13 Ki): 0.52 nM; Ki ([5]; Table 8, read-out: MMP-9 Ki): 17.5 nM
CCCCOCCCC1CCN(S(=O)(=O)C2(C(=O)NO)CCOCC2)CC1 [Example A36I] | – | – | – | – | – | Ki ([1]; Table 8, read-out: MMP-2 Ki): 9.08 nM; Ki ([2]; Table 8, read-out: MMP-1 Ki): > 10000 nM; Ki ([3]; Table 8, read-out: MMP-14 Ki): 6370 nM; Ki ([4]; Table 8, read-out: MMP-13 Ki): 7.7 nM; Ki ([5]; Table 8, read-out: MMP-9 Ki): 2.57 nM
O=C(/C=C/C=C/C1CCN(S(=O)(=O)C2(C(=O)NO)CCOCC2)CC1)N1CCCCC1 [Example A78] | 172 nM | 2420 nM | > 10000 nM | 0.52 nM | 428 nM | –
CN(C(=O)CCCC1CCN(S(=O)(=O)C2(C(=O)NO)CCOCC2)CC1)c1ccc(F)cc1 [Example A146] | 344 nM | > 10000 nM | > 10000 nM | 31.8 nM | 262 nM | –
O=C(NO)C1(S(=O)(=O)N2CCC(CCCCCOCC(F)(F)F)CC2)CCOCC1 [Example A35, 4-{4-[5-(2,2,2-trifluoro-ethoxy)-pentyl]-piperidine-1-sulfonyl}-tetrahydro-pyran-4-carboxylic Acid Hydroxyamide] | – | – | – | – | – | Ki ([1]; Table 8, read-out: MMP-2 Ki): 2.22 nM; Ki ([2]; Table 8, read-out: MMP-1 Ki): 5290 nM; Ki ([3]; Table 8, read-out: MMP-14 Ki): 1710 nM; Ki ([4]; Table 8, read-out: MMP-13 Ki): 0.28 nM; Ki ([5]; Table 8, read-out: MMP-9 Ki): 2.68 nM
Cc1ccc(N2CCC(C(=O)NO)(S(=O)(=O)N3CCC(c4ccc(CCC(F)(F)C(F)(F)F)cn4)CC3)CC2)cn1 [Example A131] | 1.2 nM | > 10000 nM | 1910 nM | 0.34 nM | 0.57 nM | –
O=C(CO)N1CCC(C(=O)NO)(S(=O)(=O)N2CCC(c3ccc(CCC(F)(F)C(F)(F)F)cn3)CC2)CC1 [Example A118] | 0.56 nM | 6600 nM | 3600 nM | 0.18 nM | 0.4 nM | –
O=C(NO)C1(S(=O)(=O)N2CCC(c3ccc(CCC(F)(F)C(F)(F)F)cn3)CC2)CCN(c2ccc(Cl)cc2)CC1 [Example A158] | 14.6 nM | > 10000 nM | > 10000 nM | 8.98 nM | 13.4 nM | –
CCN1CCC(C(=O)NO)(S(=O)(=O)N2CCC(c3ccc(CCC(F)(F)C(F)(F)F)cn3)CC2)CC1 [Example A181] | 2.36 nM | > 10000 nM | > 10000 nM | 0.61 nM | 1.33 nM | –

Continued, in another order:

Ki [1, 6] | Ki [2, 7] | Ki [3, 8] | Ki [4, 9] | Ki [5, 10] | SMILES | also measured
3.84 nM | 363 nM | 2880 nM | 1.08 nM | 3.39 nM | COC(=O)CCCCC1CCN(S(=O)(=O)C2(C(=O)NO)CCOCC2)CC1 [Example A103] | –
0.513 nM | 2970 nM | 1670 nM | 0.474 nM | 0.223 nM | O=C(NO)C1(S(=O)(=O)N2CCC(c3ccc(CCC(F)F)cn3)CC2)CCOCC1 [Example A161] | –
23.8 nM | 516 nM | 7540 nM | 8.19 nM | 307 nM | CNC(=O)CCCCC1CCN(S(=O)(=O)C2(C(=O)NO)CCOCC2)CC1 [Example A86] | –
178 nM | 7360 nM | > 10000 nM | 1.94 nM | 1590 nM | O=C(/C=C/C=C/C1CCN(S(=O)(=O)C2(C(=O)NO)CCOCC2)CC1)N1CCOCC1 [Example A208] | –
0.6 nM | 8300 nM | 3720 nM | 0.42 nM | 26.8 nM | COCC(=O)N1CCC(C(=O)NO)(S(=O)(=O)N2CCC(c3ccc(CCC(F)(F)C(F)(F)F)cn3)CC2)CC1 [Example A109] | –
0.18 nM | 1570 nM | 2430 nM | 0.34 nM | 6.81 nM | O=C(NO)C1(S(=O)(=O)N2CCN(c3ccc(-c4cccnc4)c(F)c3)CC2)CCOCC1 [Example A195] | –
17.2 nM | 927 nM | > 10000 nM | 0.01 nM | 107 nM | O=C(CCCCC1CCN(S(=O)(=O)C2(C(=O)NO)CCOCC2)CC1)N1Cc2ccccc2C1 [Example A87] | –
0.46 nM | 2300 nM | 1230 nM | 2.08 nM | 0.92 nM | Cn1nnc(-c2ccc(C3CCN(S(=O)(=O)C4(C(=O)NO)CCOCC4)CC3)cc2)n1 [Example A202] | –
